Data on 5 molecules can be found in patent publication US8067424B2, “Selective inhibitors for cyclin-dependent kinases” (Emory University, priority 2007, dated 2011).

Usually remaining activity stands for the signal under treatment as a percentage of the control signal.

What all share (format): biochemical
Assay [1] has as its target T1, p38γ MAPK (Homo sapiens, UniProt P53778).
T1 sequence (P53778 1-367): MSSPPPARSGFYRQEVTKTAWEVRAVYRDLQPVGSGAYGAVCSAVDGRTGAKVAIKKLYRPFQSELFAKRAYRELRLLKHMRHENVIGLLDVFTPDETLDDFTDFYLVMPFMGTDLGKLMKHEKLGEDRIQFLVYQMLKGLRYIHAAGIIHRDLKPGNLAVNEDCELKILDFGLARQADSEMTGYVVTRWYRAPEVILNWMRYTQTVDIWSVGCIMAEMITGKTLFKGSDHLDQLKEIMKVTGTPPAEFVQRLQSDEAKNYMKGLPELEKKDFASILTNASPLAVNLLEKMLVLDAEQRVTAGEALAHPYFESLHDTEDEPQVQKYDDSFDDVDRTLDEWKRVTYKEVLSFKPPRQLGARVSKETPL
As to the kind of experiment: Kinase screen: SAPK 3/p38g assay. How it is done: (§1) Generally, the same procedure was used for all assays. Since the total assay volume was 25.5 microliters, 0.5 microliters of inhibitors at 51× assay concentration were added to the plates before any other addition.
(§2) The basic procedure was to add 0.5 microliters inhibitor/control in DMSO to plate. Fifteen microliters of enzyme/substrate/buffer mix were added and incubated for 5 min. Ten microliters MgATP at the relevant concentration were added and incubated for 30 min. The assay was stopped by adding 5 microliters of 3% orthophosphoric acid. The assay was transferred to a p81 filter plate and read in a scintillation counter of 30 sec/well. Note that this assay procedure was not followed for MKK1, which instead involved a two-step assay, and PKC alpha, which required the addition of lipid vesicles.
SAPK 3/p38g assay: SAPK 3/p38g (5-20 mU diluted in 50 mM Tris pH 7.5, 0.1 mM EGTA, 0.1 mM Na3VO4, 0.1% b-mercaptoethanol, 1 mg/ml BSA) was assayed against MBP in a final volume of 25.5 μl containing 25 mM Tris pH 7.5, 0.1 mM EGTA, 0.33 mg/ml MBP, 10 mM magnesium acetate and 0.005 mM [33P-g-ATP] (50-1000 cpm/pmole) and incubated for 30 min at room temperature. Assays were stopped by addition of 5 μl of 0.5 M (3%) orthophosphoric acid and then harvested onto P81 Unifilter plates with a wash buffer of 50 mM orthophosphoric acid.

Assay [2] concerns the target RSK2 (Homo sapiens, UniProt P51812). As to the kind of experiment: Kinase screen: MAPKAP-K1b/RSK2 assay. How it is done: as §1, §2
MAPKAP-K1b/RSK2 assay: MAPKAP-K1b (5-20 mU diluted in 20 mM MOPS pH 7.5, 1 mM EDTA, 0.01% Brij35, 5% glycerol, 0.1% b-mercaptoethanol, 1 mg/ml BSA) was assayed against substrate peptide ([…]) (SEQ ID NO: 3) in a final volume of […] containing 50 mM Na-b-glycerophosphate (pH 7.5), 0.5 mM EDTA, 30 μM substrate peptide, 10 mM magnesium acetate and 0.05 mM [33P-g-ATP] (50-1000 cpm/pmole) and incubated for 30 min at room temperature. Assays were stopped by addition of 5 μl of 0.5 M (3%) orthophosphoric acid and then harvested onto P81 Unifilter plates with a wash buffer of 50 mM orthophosphoric acid.

The target in assay [3] is T2, DYRK2 (Homo sapiens, UniProt Q92630).
T2 sequence (Q92630 1-601): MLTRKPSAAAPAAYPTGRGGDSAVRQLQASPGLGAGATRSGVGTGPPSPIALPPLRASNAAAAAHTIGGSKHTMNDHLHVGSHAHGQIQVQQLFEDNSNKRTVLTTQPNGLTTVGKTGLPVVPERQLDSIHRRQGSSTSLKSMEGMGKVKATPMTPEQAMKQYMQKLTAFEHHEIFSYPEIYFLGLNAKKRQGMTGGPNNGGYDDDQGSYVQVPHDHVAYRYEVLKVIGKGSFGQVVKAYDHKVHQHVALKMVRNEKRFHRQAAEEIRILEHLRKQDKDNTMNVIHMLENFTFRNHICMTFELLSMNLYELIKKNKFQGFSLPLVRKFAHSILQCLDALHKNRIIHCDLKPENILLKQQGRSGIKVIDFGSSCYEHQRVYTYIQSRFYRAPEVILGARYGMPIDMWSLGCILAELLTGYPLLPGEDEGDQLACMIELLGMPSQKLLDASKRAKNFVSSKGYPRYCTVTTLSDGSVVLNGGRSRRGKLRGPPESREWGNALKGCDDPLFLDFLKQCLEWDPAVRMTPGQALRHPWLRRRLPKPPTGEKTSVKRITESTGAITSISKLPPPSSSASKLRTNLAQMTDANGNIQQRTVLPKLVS
As to the kind of experiment: Kinase screen: DYRK2 assay. How it is done:
as §1, §2
DYRK2 assay: DYRK2 (5-20 mU of diluted in 50 mM Tris pH7.5, 0.1 mM EGTA) was assayed against Woodtide ([…]) (SEQ ID NO: 29) in a final volume of 25.5 μ1 containing 50 mM Tris pH 7.5, 0.1 mM EGTA, 350 μM substrate peptide, 10 mM Magnesium acetate and 0.05 mM [33P-g-ATP] (50-1000 cpm/pmole) and incubated for 30 min at room temperature. Assays were stopped by addition of 5 μl of 0.5 M (3%) orthophosphoric acid and then harvested onto P81 Unifilter plates with a wash buffer of 50 mM orthophosphoric acid.

Assay [4] has as its target CSK (Homo sapiens, UniProt P41240). As to the kind of experiment: Kinase screen: CSK assay. How it is done: as §1, §2
(500-1000 cpm/pmole) and incubated for 30 min at room temperature Assays were stopped by addition of 5 μl of 0.5 M (3%) orthophosphoric acid and then harvested onto P81 Unifilter plates with a wash buffer of 50 mM orthophosphoric acid.

[5] abbreviates: 10 micromolar compound, read-out: mean activity remaining (as a percentage of the original activity), p38g MAPK.
[6] abbreviates: 10 micromolar compound, read-out: mean activity remaining (as a percentage of the original activity), RSK2.
Setting [7] is: 10 micromolar compound, read-out: mean activity remaining (as a percentage of the original activity), DYRK 2.
[8] abbreviates: 10 micromolar compound, read-out: mean activity remaining (as a percentage of the original activity), CSK.

Molecules are shown by their SMILES. Like-named read-outs stand apart in the source and are kept apart here.

Sequence of CSK (P41240 whole entry, species assumed): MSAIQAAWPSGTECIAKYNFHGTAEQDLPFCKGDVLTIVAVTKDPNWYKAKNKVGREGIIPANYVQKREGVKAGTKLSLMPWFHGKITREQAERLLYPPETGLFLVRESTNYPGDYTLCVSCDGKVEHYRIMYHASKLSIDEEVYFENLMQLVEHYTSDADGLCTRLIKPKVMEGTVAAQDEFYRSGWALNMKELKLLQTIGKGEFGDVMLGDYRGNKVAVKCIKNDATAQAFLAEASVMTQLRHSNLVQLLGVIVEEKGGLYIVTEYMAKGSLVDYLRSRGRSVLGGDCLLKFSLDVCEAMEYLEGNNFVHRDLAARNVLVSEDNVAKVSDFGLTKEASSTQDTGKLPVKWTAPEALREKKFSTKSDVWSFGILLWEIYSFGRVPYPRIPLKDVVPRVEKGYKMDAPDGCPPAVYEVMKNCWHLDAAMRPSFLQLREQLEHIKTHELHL
Sequence of RSK2 (P51812 whole entry, species assumed): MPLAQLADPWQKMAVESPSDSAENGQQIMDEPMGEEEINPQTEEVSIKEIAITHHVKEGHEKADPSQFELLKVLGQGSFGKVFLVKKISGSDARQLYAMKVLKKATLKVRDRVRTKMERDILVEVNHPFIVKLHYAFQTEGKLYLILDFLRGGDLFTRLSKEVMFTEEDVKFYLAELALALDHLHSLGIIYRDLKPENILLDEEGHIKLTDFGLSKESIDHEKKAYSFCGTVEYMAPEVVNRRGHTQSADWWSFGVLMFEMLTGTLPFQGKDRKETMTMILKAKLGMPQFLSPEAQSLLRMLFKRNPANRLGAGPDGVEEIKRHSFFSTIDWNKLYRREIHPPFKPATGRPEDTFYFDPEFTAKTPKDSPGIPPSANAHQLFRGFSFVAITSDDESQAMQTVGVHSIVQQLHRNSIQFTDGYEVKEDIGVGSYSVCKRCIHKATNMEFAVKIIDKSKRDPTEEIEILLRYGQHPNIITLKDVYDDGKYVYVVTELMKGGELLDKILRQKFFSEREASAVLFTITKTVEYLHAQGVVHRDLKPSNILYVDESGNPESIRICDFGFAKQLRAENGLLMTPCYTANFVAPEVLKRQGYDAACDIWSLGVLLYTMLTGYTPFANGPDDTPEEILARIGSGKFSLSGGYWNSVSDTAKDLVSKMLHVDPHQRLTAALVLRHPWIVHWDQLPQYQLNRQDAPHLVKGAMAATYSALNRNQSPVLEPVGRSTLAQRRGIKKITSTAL

For `CC[C@H](CO)Nc1cc(NCc2ccccc2)n2ncc(C(C)C)c2n1` [ICEC0067], the remaining activity at 10 µM turned out to be 82% in assay [1] (setting [5]), 76% in assay [2] (setting [6]), 90% in assay [3] (setting [7]) and 77% in assay [4] (setting [8]).
Regarding `C=C[C@H](CO)Nc1cc(NCc2ccccc2)n2ncc(C(C)C)c2n1` [ICEC0065], the remaining activity at 10 µM in assay [1] (setting [5]) is 108%; in assay [2] (setting [6]) it was 84%; in assay [3] (setting [7]) it was 90%; in assay [4] (setting [8]), 77%.
Take `CC(C)c1cnn2c(NCc3ccccc3)cc(N[C@@H](CO)[C@H](O)CO)nc12` [ICEC0318, (3S)-3-(7-(Benzylamino)-3-isopropylpyrazolo[1,5-a]pyrimidin-5-ylamino)butane-1,2,4-triol]: the remaining activity at 10 µM worked out at 112% in assay [1] (setting [5]), 90% in assay [2] (setting [6]), 75% in assay [3] (setting [7]) and 77% in assay [4] (setting [8]).
For the molecule `CC(C)c1cnn2c(NCc3ccccc3F)cc(NCCCCCN)nc12` [ICEC-0232], the “mean activity remaining (as a percentage of the original activity), p38g MAPK” value in assay [1] (10 micromolar compound) is 91%. Besides, the “mean activity remaining (as a percentage of the original activity), RSK2” value in assay [2] (10 micromolar compound) was found to be 19%. Besides, the “mean activity remaining (as a percentage of the original activity), DYRK 2” value in assay [3] (10 micromolar compound) was 68%. In assay [4] (10 micromolar compound), the “mean activity remaining (as a percentage of the original activity), CSK” value is listed as 78%.
Consider `CC(C)c1cnn2c(NCc3ccccc3)cc(NCCCCCCCN)nc12` [BS-181], for which the remaining activity at 10 µM in assay [1] (p38γ MAPK, 10 μM, read-out: Mean Remaining Enzyme Activity (%)) amounted to 108%; in assay [2] (RSK2, 10 μM, read-out: Mean Remaining Enzyme Activity (%)), 55%; in assay [3] (DYRK2, 10 μM, read-out: Mean Remaining Enzyme Activity (%)), 94%; in assay [4] (CSK, 10 μM, read-out: Mean Remaining Enzyme Activity (%)) it was 89%.
